Source: patent publication US12226409B2, “Treatment of hepatocellular carcinoma” (Eisai R&D Management Co., Ltd., priority 2017, dated 2025)

System: patients with unresectable HCC
Assay: Open-label phase 3 study, safety and side-effect profile (CTCAE v4.0)
[1] = Any grade, listed as lenvatinib

Excerpt: Randomization was stratified according to region (Asia-Pacific or Western regions), macroscopic portal vein invasion and/or extrahepatic spread (yes or no), Eastern Cooperative Oncology Group performance status (0 or 1), and body weight (<60 kg or ≥60 kg).
Safety assessments included recording of vital signs, hematologic and biochemical laboratory testing, urinalysis, and electrocardiography.

With COc1cc2nccc(Oc3ccc(NC(=O)NC4CC4)c(Cl)c3)c2cc1C(N)=O [Lenvatinib, 4-(3-chloro-4(cyclopropylaminocarbonyl)aminophenoxy)-7-methoxy-6-quinolinecarboxamide] the “TEAE: Alopecia” value (12 mg starting dose) was 9 (2.8) n (%), the “TEAE: Ascites” value (12 mg starting dose) was 47 (14.5) n (%) and the “TEAE: Aspartate aminotransferase increased” value (12 mg starting dose) was 44 (13.5) n (%). For the same molecule, the “TEAE: Asthenia” value (12 mg starting dose) was 40 (12.3) n (%), the “TEAE: Back pain” value (12 mg starting dose) was 39 (12.0) n (%) and the “TEAE: Blood bilirubin increased” value (12 mg starting dose) was 48 (14.8) n (%). For the same molecule, the “TEAE: Constipation” value (12 mg starting dose) was 57 (17.5) n (%), the “TEAE: Decreased appetite” value (12 mg starting dose) was 112 (34.5) n (%) and the “TEAE: Diarrhea” value (12 mg starting dose) was 131 (40.3) n (%). For the same molecule, the “TEAE: Dysphonia” value (12 mg starting dose) was 85 (26.2) n (%), the “TEAE: Edema peripheral” value (12 mg starting dose) was 43 (13.2) n (%) and the “TEAE: Fatigue” value (12 mg starting dose) was 99 (30.5) n (%). The “TEAE: Hypertension” value (12 mg starting dose) was 136 (41.8) n (%), the “TEAE: Hypothyroidism” value (12 mg starting dose) was 53 (16.3) n (%) and the “TEAE: Nausea” value (12 mg starting dose) was 69 (21.2) n (%). For the same molecule, the “TEAE: Palmar-plantar erythrodysesthesia syndrome” value (12 mg starting dose) was 93 (28.6) n (%), the “TEAE: Platelet count decreased” value (12 mg starting dose) was 61 (18.8) n (%) and the “TEAE: Proteinuria” value (12 mg starting dose) was 80 (24.6) n (%). For the same molecule, the “TEAE: Pyrexia” value (12 mg starting dose) was 45 (13.8) n (%), the “TEAE: Rash” value (12 mg starting dose) was 28 (8.6) n (%) and the “TEAE: Stomatitis” value (12 mg starting dose) was 34 (10.5) n (%). The “TEAE: Vomiting” value (12 mg starting dose) was 55 (16.9) n (%), the “TEAE: Weight decreased” value (12 mg starting dose) was 104 (32.0) n (%) and the “TEAE: Dysphonia” value (Any grade) was “(23.7) %”. For the same molecule, the “TEAE: Proteinuria” value (Any grade) was “(24.6) %”, the “TEAE: decreased weight” value (Any grade) was “(30.9) %” and the “TEAE: Dysphonia” value [1] was 23.7%. For the same molecule, the “TEAE: Hypertension” value [1] was 42.2%, the “TEAE: Hypothyroidism” value [1] was 16.4% and the “TEAE: Proteinuria” value [1] was 24.6%. The “Primary reason for discontinuation of treatment: Adverse event” value (Full Analysis Set) was 63 (13.2) n (%), the “most common adverse reactions, in order of decreasing frequency” value (HCC subjects) was “hypertension, fatigue, diarrhea, decreased appetite, arthralgia/myalgia, and decreased weight” and the “adverse event rate adjusted by patient-years” value (TEAEs of grade 3 or higher) was 3.2. The “adverse event rate adjusted by patient-years” value (all TEAEs) was 18.9, the “Dose modification: AST increased” value (in vivo) was 1.9% and the “Dose modification: ascites” value (in vivo) was 2.1%. The “Dose modification: hepatic encephalopathy” value (in vivo) was 4.2%, the “Dose modification: neutrophil count decreased” value (in vivo) was 2.3% and the “Dose modification: pyrexia” value (in vivo) was 2.5%. For the same molecule, the “Dose modification: vomiting” value (in vivo) was 2.5%, the “Dose modification: weight decreased” value (in vivo) was 4.2% and the “Dose reduction/interruption: Gastrointestinal disorders” value (in vivo) was 18.3%. For the same molecule, the “Dose reduction/interruption: General disorders and administration site conditions” value (in vivo) was 14.1%, the “Dose reduction/interruption: Investigations” value (in vivo) was 17.0% and the “Dose reduction/interruption: Metabolism and nutrition disorders” value (in vivo) was 10.9%. The “Dose reduction/interruption: PPE syndrome” value (in vivo) was 5.3%, the “Dose reduction/interruption: decreased appetite” value (in vivo) was 7.6% and the “Dose reduction/interruption: diarrhea” value (in vivo) was 7.6%. The “Dose reduction/interruption: fatigue” value (in vivo) was 5.7%, the “Dose reduction/interruption: hypertension” value (in vivo) was 6.1% and the “Dose reduction/interruption: proteinuria” value (in vivo) was 6.9%. For the same molecule, the “Treatment-emergent adverse events of grade 3 or higher, patients” value (in vivo) was 75.0%, the “Treatment-emergent adverse events, patients” value (in vivo) was 98.7% and the “WBC count deceased, adjusted by treatment duration” value (in vivo) was 0.25 episodes per SY. For the same molecule, the “dysphonia, adjusted by treatment duration” value (in vivo) was 0.4 episodes per SY, the “hepatic encephalopathy, adjusted by treatment duration” value (in vivo) was 0.17 episodes per SY and the “hypothyroidism, adjusted by treatment duration” value (in vivo) was 0.24 episodes per SY. The “neutrophil count decreased, adjusted by treatment duration” value (in vivo) was 0.21 episodes per SY, the “proteinuria, adjusted by treatment duration” value (in vivo) was 0.5 episodes per SY and the “subjects without a TEAE” value (in vivo) was 6 subjects. The “AEs leading to dose reduction or interruption, subjects” value (unadjusted for treatment duration) was 61.8%, the “Dose reduction/interruption: Abdominal pain” value (whole arm) was 6 (1.3) n (%) and the “Dose reduction/interruption: Abdominal pain upper” value (whole arm) was 5 (1.1) n (%). The “Dose reduction/interruption: Alanine aminotransferase increased” value (whole arm) was 6 (1.3) n (%), the “Dose reduction/interruption: Anemia” value (whole arm) was 3 (0.6) n (%) and the “Dose reduction/interruption: Ascites” value (whole arm) was 10 (2.1) n (%). The “Dose reduction/interruption: Aspartate aminotransferase increased” value (whole arm) was 9 (1.9) n (%), the “Dose reduction/interruption: Asthenia” value (whole arm) was 16 (3.4) n (%) and the “Dose reduction/interruption: Blood and lymphatic system disorders” value (whole arm) was 16 (3.4) n (%). For the same molecule, the “Dose reduction/interruption: Blood bilirubin increased” value (whole arm) was 20 (4.2) n (%), the “Dose reduction/interruption: Decreased appetite” value (whole arm) was 36 (7.6) n (%) and the “Dose reduction/interruption: Dehydration” value (whole arm) was 6 (1.3) n (%). For the same molecule, the “Dose reduction/interruption: Diarrhea” value (whole arm) was 36 (7.6) n (%), the “Dose reduction/interruption: Dyspnea” value (whole arm) was 8 (1.7) n (%) and the “Dose reduction/interruption: Edema peripheral” value (whole arm) was 6 (1.3) n (%). For the same molecule, the “Dose reduction/interruption: Esophageal varices hemorrhage” value (whole arm) was 5 (1.1) n (%), the “Dose reduction/interruption: Fatigue” value (whole arm) was 27 (5.7) n (%) and the “Dose reduction/interruption: Gamma-glutamyltransferase increased” value (whole arm) was 7 (1.5) n (%). For the same molecule, the “Dose reduction/interruption: Gastrointestinal disorders” value (whole arm) was 87 (18.3) n (%), the “Dose reduction/interruption: General disorders and administration site conditions” value (whole arm) was 67 (14.1) n (%) and the “Dose reduction/interruption: Hepatic encephalopathy” value (whole arm) was 20 (4.2) n (%). For the same molecule, the “Dose reduction/interruption: Hepatic function abnormal” value (whole arm) was 2 (0.4) n (%), the “Dose reduction/interruption: Hepatobiliary disorders” value (whole arm) was 27 (5.7) n (%) and the “Dose reduction/interruption: Hypertension” value (whole arm) was 29 (6.1) n (%). The “Dose reduction/interruption: Hyponatremia” value (whole arm) was 5 (1.1) n (%), the “Dose reduction/interruption: Investigations” value (whole arm) was 81 (17.0) n (%) and the “Dose reduction/interruption: Malaise” value (whole arm) was 5 (1.1) n (%). The “Dose reduction/interruption: Metabolism and nutrition disorders” value (whole arm) was 52 (10.9) n (%), the “Dose reduction/interruption: Musculoskeletal and connective tissue disorders” value (whole arm) was 18 (3.8) n (%) and the “Dose reduction/interruption: Myalgia” value (whole arm) was 5 (1.1) n (%). The “Dose reduction/interruption: Nausea” value (whole arm) was 16 (3.4) n (%), the “Dose reduction/interruption: Nervous system disorders” value (whole arm) was 35 (7.4) n (%) and the “Dose reduction/interruption: Neutropenia” value (whole arm) was 6 (1.3) n (%). For the same molecule, the “Dose reduction/interruption: Neutrophil count decreased” value (whole arm) was 11 (2.3) n (%), the “Dose reduction/interruption: Palmar-plantar erythrodysesthesia syndrome” value (whole arm) was 25 (5.3) n (%) and the “Dose reduction/interruption: Platelet count decreased” value (whole arm) was 22 (4.6) n (%). For the same molecule, the “Dose reduction/interruption: Proteinuria” value (whole arm) was 33 (6.9) n (%), the “Dose reduction/interruption: Pyrexia” value (whole arm) was 12 (2.5) n (%) and the “Dose reduction/interruption: Rash” value (whole arm) was 2 (0.4) n (%). The “Dose reduction/interruption: Rash maculo-papular” value (whole arm) was 0 (0.0) n (%), the “Dose reduction/interruption: Renal and urinary disorders” value (whole arm) was 40 (8.4) n (%) and the “Dose reduction/interruption: Respiratory, thoracic and mediastinal disorders” value (whole arm) was 16 (3.4) n (%). The “Dose reduction/interruption: Skin and subcutaneous tissue disorders” value (whole arm) was 28 (5.9) n (%), the “Dose reduction/interruption: Stomatitis” value (whole arm) was 6 (1.3) n (%) and the “Dose reduction/interruption: Thrombocytopenia” value (whole arm) was 6 (1.3) n (%). For the same molecule, the “Dose reduction/interruption: Vascular disorders” value (whole arm) was 33 (6.9) n (%), the “Dose reduction/interruption: Vomiting” value (whole arm) was 12 (2.5) n (%) and the “Dose reduction/interruption: Weight decreased” value (whole arm) was 20 (4.2) n (%). The “Dose reduction/interruption: White blood cell count decreased” value (whole arm) was 6 (1.3) n (%), the “Subjects with Any TEAEs” value (whole arm) was 470 (98.7) n (%) and the “Subjects with any TEAEs leading to Dose Reduction or Interruption” value (whole arm) was 294 (61.8) n (%). For the same molecule, the “TEAE: Abdominal pain” value (whole arm) was 81 (17.0) n (%), the “TEAE: Abdominal pain upper” value (whole arm) was 58 (12.2) n (%) and the “TEAE: Alanine aminotransferase increased” value (whole arm) was 53 (11.1) n (%). The “TEAE: Alopecia” value (whole arm) was 14 (2.9) n (%), the “TEAE: Ascites” value (whole arm) was 68 (14.3) n (%) and the “TEAE: Aspartate aminotransferase increased” value (whole arm) was 65 (13.7) n (%). For the same molecule, the “TEAE: Asthenia” value (whole arm) was 54 (11.3) n (%), the “TEAE: Back pain” value (whole arm) was 50 (10.5) n (%) and the “TEAE: Blood bilirubin increased” value (whole arm) was 71 (14.9) n (%). The “TEAE: Constipation” value (whole arm) was 76 (16.0) n (%), the “TEAE: Decreased appetite” value (whole arm) was 162 (34.0) n (%) and the “TEAE: Diarrhea” value (whole arm) was 184 (38.7) n (%). For the same molecule, the “TEAE: Dysphonia” value (whole arm) was 113 (23.7) n (%), the “TEAE: Edema peripheral” value (whole arm) was 66 (13.9) n (%) and the “TEAE: Fatigue” value (whole arm) was 141 (29.6) n (%). The “TEAE: Hypertension” value (whole arm) was 201 (42.2) n (%), the “TEAE: Hypothyroidism” value (whole arm) was 78 (16.4) n (%) and the “TEAE: Nausea” value (whole arm) was 93 (19.5) n (%). The “TEAE: Palmar-plantar erythrodysesthesia syndrome” value (whole arm) was 128 (26.9) n (%), the “TEAE: Platelet count decreased” value (whole arm) was 87 (18.3) n (%) and the “TEAE: Proteinuria” value (whole arm) was 117 (24.6) n (%). The “TEAE: Pyrexia” value (whole arm) was 69 (14.5) n (%), the “TEAE: Rash” value (whole arm) was 46 (9.7) n (%) and the “TEAE: Stomatitis” value (whole arm) was 45 (9.5) n (%). For the same molecule, the “TEAE: Vomiting” value (whole arm) was 77 (16.2) n (%) and the “TEAE: Weight decreased” value (whole arm) was 147 (30.9) n (%).
